Patent publication US20010012631A1, “Plant clonal lines and plants having elevated secondary metabolite levels” (University of Massachusetts Medical Center, a Massachusetts …, priority 1997, published 2001)
Read-outs that look alike come from different tables or passages of the source.

Assays:
[1] = system: Glucose-6-phosphate dehydrogenase (G-6-PDH); assay type: cell-based, oregano; conditions: A2C 50 μM
Experimental: These enzymes are involved in synthesis of phenolic secondary metabolites (PAL) and in the pentose phosphate pathway (G-6-PDH).
One gm fresh weight of leaves were ground to a powder in liquid nitrogen, and homogenized in 0.1 M Tris-HCl buffer (pH 7.4) containing 1 mM phenylmethyl-sulfonyl fluoride (PMSF), 0.1% polyvinylpyrrolidone (PVP, to remove phenolics and polysaccharides) and 1 mM dithiothreitol (DTT). Extracts were centrifuged at 15,000×g for 20 minutes, and supernatants (5 ml) were partially purified through a PD 10 column (Pharmacia, Inc., NJ). Protein was eluted from the column using 5 ml of 0.1 M Tris-HCl, pH 8.5, which is close to the pH optimum of plant glucose-6-phosphate dehydrogenase (pH 8.0-8.2) and PAL (pH 8.8).
Glucose-6-phosphate dehydrogenase activity in the protein extract was measured spectrophotometrically by following the change in absorbance at 340 nm in the presence of saturating amounts of glucose-6-phosphate (2mM) and NADP (5 μM) in 0.1 M Tris-HCl, pH 8.0. One unit of glucose-6-phosphate dehydrogenase was defined as the amount of enzyme causing the reduction of 1 μmol of NADP^+ per minute. Specific activity was expressed as units per milligram of protein.

[2] = system: rosemary clonal line R-7; test: RA content of shoot propagules, rosemary clonal line R-7; assay type: cell-based; conditions: 30 to 45 days, ± SD
Experimental: (§1) Samples of Pseudomonas-treated and untreated control shoots from each line were assayed for rosmarinic acid content and proline content. Rosmarinic acid was extracted from 50 mg of fresh shoot tissue using 2 ml of 50% (v/v) methanol and incubating for 1 hour at 55° C. One ml of the methanol extract was diluted 1:18 and the absorbance of the diluted extract was measured at 333 nm in a Genesys spectrophotometer (Spectronic Instruments, Rochester, N.Y.). The concentration of RA in the extract was calculated using an extinction coefficient of ε333=19,000 τmol^−1cm^−1. Values for the concentration of RA for each treatment/clonal line shown in the Tables and Figures of this application are the average of at least 5 separate extracts. Total rosmarinic acid content was expressed as % g/g fresh weight (FW) of tissue.
(§2) Three clonal thyme lines and five rosemary clonal lines were isolated and maintained in culture as described in U.S. application Ser. No. 08/771,241, filed Dec. 20, 1996 and incorporated herein by reference.
(§3) Individual shoot propagules of each clonal line were transferred to half-strength hormone-free MS media supplemented with A2C and cultured for 30 to 45 days. RA content and morphological abnormalities were determined at the end of the culture period as described in Example 1.

[3] = system: thyme clonal line M-3; test: Morphological abnormalities / tolerance of cultured shoots, thyme line M-3; assay type: cell-based; conditions: thyme line M-3, 200 μM A2C
Experimental: Pseudomonas tolerance of Pseudomonas-treated shoots was determined by visual observation with a stereomicroscope (Olympus-SZ40, Tokyo, Japan) at a magnification of 34X. Cultured shoots were evaluated for morphological abnormalities, including malformation, necrosis, and chlorophyll deficiency. The response of individual tissue propagules to Pseudomonas contact was similar within each line, i.e., there was little or no variation among tissue propagules within each line.
as §3

[4] = system: rosemary clonal line R-35; test: RA content of shoot propagules, rosemary clonal line R-35; assay type: cell-based; conditions: 30 to 45 days, ± SD
Experimental: as §1, §2, §3

[5] = system: thyme clonal line M-3; test: RA content of shoot propagules, thyme clonal line M-3; assay type: cell-based; conditions: 30 to 45 days
Experimental: as §1, §2, §3

[6] = system: oregano clonal line OM-8; assay type: cell-based; conditions: 30 days
Experimental: as §1
(§4) Oregano lines 0-1, 0-4, and 0-5 of Examples 1 and 2 were tested again for cross-tolerance to A2C. Clonal lines OM-1, and OM-8 of Example 1 were also tested for cross-tolerance to A2C. Line OM-8 was previously shown to be sensitive to Pseudomonas strain F, whereas line OM-1 was tolerant of Pseudomonas strain F. Lines were maintained on MS medium containing BAP as described in Example 1.
(§5) Individual shoot tissue propagules of each clonal line were transferred to half strength hormone-free MS medium supplement with A2C. RA content and morphological abnormalities were determined as described in Example 1.

[7] = system: oregano clonal line OM-1; assay type: cell-based; conditions: 30 days, ± SD
Experimental: as §1, §4, §5

[8] = system: rosemary clonal line R-16; test: RA content of shoot propagules, rosemary clonal line R-16; assay type: cell-based; conditions: 30 to 45 days
Experimental: as §1, §2, §3

[9] = system: oregano clonal lines; test: Selection for A2C tolerance: total phenolic content of about 100 oregano clonal lines; assay type: cell-based; conditions: small fraction of about 100 oregano lines, 200 μM A2C, 30 days
Experimental: Total phenolic content can be measured, for example, using Folin-Ciocalteu reagent essentially as described in Chandler and Dodds, Plant Cell Rep. 2:105-108 (1983) and Shetty, K., Ph.D., Thesis, University of Idaho (1989). The tissue is disrupted in 95% ethanol and centrifuged to remove particulate matter. An aliquot of the ethanol supernatant is mixed with an equal volume of Folin-Ciocalteu reagent, and incubated at 25° C. A 5% sodium carbonate can be added to stabilize color development. Absorbance of the solution is measured at 725 nm is a spectrophotometer. A standard curve is developed using various concentrations of gallic acid in 95% ethanol. Absorbance values are converted to mg total phenolics/g fresh weight (FW) tissue from the standard curve.
About 100 oregano clonal lines are initiated as described in Example 1. Lines are maintained on MS medium containing BAP as described in Example 1. At the end of a subculture cycle, 50 shoot propagules of each clonal line are transferred to half-strength hormone-free MS medium containing 200 μM A2C. Propagules are then cultured for 30 days as described in Example 1, and assayed for RA content as described in Example 1. Total phenolic content is measured as described in U.S. application Ser. No. 08/771,241, filed Dec. 20, 1996, incorporated herein by reference.

[10] = system: thyme clonal line T-16G; test: RA content of shoot propagules, thyme clonal line T-16G; assay type: cell-based; conditions: thyme T-16G, 30 to 45 days, ± SD
Experimental: as §1, §2, §3

[11] = system: regenerated plants of oregano clone 0-1 and five tolerant clones; test: Field treatment: RA content of leaf tissue of regenerated oregano plants; assay type: in vivo; conditions: field plants sprayed with solution of A2C about 50 μm, Nonidet P40, EMC about 0.5% w/v; leaf tissue after 7 days; fresh weight and dry weight basis
Experimental: (§6) About 100 regenerated plants of oregano clone 0-1, and the five tolerant clones of Example 7 are removed from a greenhouse, and planted outdoors in a field during the spring, and summer growing season. Plantings are carried out using a randomized block design. Plants are fertilized weekly, but are not irrigated. About 7 days before flower emergence, half of the plants of each line are sprayed with an aqueous solution comprising A2C, Nonidet P40™, and EMC prepared from strain F. A2C is present at about 50 μm, and EMC is present at about 0.5% w/v. Each plant receives about 1 to 2 ml on the upper surface of the leaves. The remaining control plants are treated by spraying an aqueous solution that contains no A2C and no EMC. Spraying is carried out such that there is little or no carryover to adjacent plants.
(§7) After 7 days, leaf tissue from A2C-treated and control plants is harvested, and analyzed for total phenolic content, and RA content as described in Example 7. […] The plant-to-plant variation among A2C-treated plants of each line is about 5% to about 15%.

[12] = system: regenerated plants of oregano clone 0-1 and five tolerant clones; test: Field treatment: total phenolic content of leaf tissue of regenerated oregano plants; assay type: in vivo; conditions: field plants sprayed with solution of A2C about 50 μm, Nonidet P40, EMC about 0.5% w/v; leaf tissue after 7 days; fresh weight and dry weight basis
Experimental: as §6, §7

SMILES: O=C(O)C1CCN1 (centres unmarked) [A2C, azetidine-2-carboxylic acid]
- G-6-PDH specific activity ([1]; 10 days of culture treatment): 1.47 μmoles NADPH/min/mg protein
- G-6-PDH specific activity ([1]; 25 days of culture treatment): 1.23 μmoles NADPH/min/mg protein
- RA Levels ([2]; rosemary R-7, A2C 100 μM): 6.8 ± 1.1 mg/g FW
- RA Levels ([2]; rosemary R-7, A2C 200 μM): 7.9 ± 2.0 mg/g FW
- survival of line in culture [3]: killed
- RA Levels ([4]; rosemary R-35, A2C 100 μM): 12.1 ± 1.4 mg/g FW
- RA Levels ([4]; rosemary R-35, A2C 200 μM): 10.9 ± 0.9 mg/g FW
- RA Levels ([5]; thyme M-3, A2C 100 μM, ± SD): 2.4 ± 0.5 mg/g FW
- RA Levels ([5]; thyme M-3, A2C 200 μM): inhibited
- RA Levels ([6]; line OM-8, A2C 100 μM, ± SD): 2.9 ± 0.3 mg/g FW
- RA Levels ([6]; line OM-8, A2C 200 μM): inhibited
- RA Levels ([7]; line OM-1, A2C 100 μM): 7.1 ± 0.7 mg/g FW
- RA Levels ([7]; line OM-1, A2C 200 μM): 6.4 ± 1.2 mg/g FW
- RA Levels ([8]; rosemary R-16, A2C 100 μM, ± SD): 10.4 ± 1.9 mg/g FW
- RA Levels ([8]; rosemary R-16, A2C 200 μM): inhibited
- increase in total phenolic content on a fresh weight basis vs tissue cultured in the absence of A2C [9]: at least 2 fold
- RA Levels ([10]; A2C 100 μM): 3.1 ± 0.4 mg/g FW
- RA Levels ([10]; A2C 200 μM): 3.7 ± 0.4 mg/g FW
- RA vs control tissue [11]: at least 2 fold
- total phenolics vs control tissue [12]: at least 2 fold
